# Test results: patent US11834391B2, “Pantothenamide analogues” (MMV MEDICINES FOR MALARIA VENTURE, priority 2018, dated 2023)
# How the values were obtained:
# [1] = system: P. falciparum NF54 asexual blood stage parasites; assay: Replication assay for asexual blood-stage parasites (SYBR Green); format: cell-based; conditions: Plasmodium falciparum; P. falciparum NF54, 72 h incubation, 10% human serum; average of at least two replicate experiments; read-out: antimalarial IC50 asexual blood stages
# Procedure: (§1) Plasmodium falciparum strain NF54 was cultured in Roswell Park Memorial Institute (RPMI) 1640 medium supplemented with 25 mM NaHCO3, 10% human type A serum and 5% (v/v) human type 0 red blood cells (Sanquin, the Netherlands). Replication assays for asexual blood-stage parasites were performed by diluting parasites in RPMI1640 medium with 10% human serum to a parasitemia of 0.83% and a hematocrit of 3%. 30 μl of diluted parasites were combined with 30 μl of compound serially diluted in DMSO and RPMI1640 medium to reach a final DMSO concentration of 0.1% in a total assay volume of 60 μL. Following a 72 h incubation at 37 ° C., 3% O2, 4% CO2, 30 μL of diluted SYBR® Green reagent was added according to the instructions of the manufacturer (Life Technologies) and fluorescence intensity was quantified using a Biotek Synergy® 2 plate reader. Gametocyte viability assays were initiated by inoculating a culture flask with 1% asexual blood-stage parasites in 5% haematocrit in RPMI1640 medium with 10% human serum. From day 4 to day 9 after inoculation, cultures were treated with 50 mM N-acetylglucosamine to eliminate asexual blood-stage parasites. At day 11 post inoculation, gametocytes (predominantly stage IV) were isolated by Percoll® density gradient centrifugation. Gametocytes were seeded at a density of 5,000 cells/well in a 384 well plate and combined with compound diluted in DMSO and subsequently in RPMI1640 medium to reach a final DMSO concentration of 0.1% in a volume of 60 μL RPMI1640 medium with 10% human serum. Following a 72 h incubation at 37 ° C., 3% O2, 4% CO2, 30 μL of ONE-Glo® reagent (Promega) was added and luminescence was quantified using a Biotek Synergy 2 reader. IC50 values were derived by fitting a four parameter logistic regression model to the data using least squares to find the best fit.
# [2] = system: P. falciparum NF54 gametocytes; assay: Gametocyte viability assay (ONE-Glo luminescence); format: cell-based; conditions: Plasmodium falciparum; P. falciparum NF54 gametocytes (predominantly stage IV), 72 h incubation, 10% human serum; average of at least two replicate experiments; read-out: antimalarial IC50 gametocytes
# Procedure: as §1
# [3] = Metabolic stability in human primary hepatocytes (hepatocyte relay assay); format: in vitro ADME; conditions: primary hepatocytes (hepatocyte relay assay), human primary hepatocytes, relay assay, 10 μM, average of two replicate experiments; for half-life at 10 μM: read-out: T½ average
# Procedure: (§2) Metabolic stability of compounds of the invention was assessed in a hepatocyte relay assay. Human primary hepatocytes (Xenotech) were cultured in collagen coated 96-well plates in Williams E (Gibco® 32551087) supplemented with 1% PenStrep (Gibco 15140-122), 1% Fungizone® (Gibco 15290026), 10% heat-inactivated fetal bovine serum (hiFBS) (Gibco 10270-106), 0.1 IU/ml insulin (Sigma 12643) and 7μM hydrocortisone hemisuccinate (Sigma H2270) at 37° C. and 5% CO2. Test compounds were added to a final concentration of 10 μM in 0.1 DMSO. Every 24 hours, the cell supernatant was transferred to freshly plated, metabolically full active cells. At regular time intervals, aliquots of supernatants were frozen for future analysis. At the end of the incubation, all samples were thawed and compound levels in time were determined by LC-MS analyses. Data were analysed by linear regression.
# [4] = system: P. falciparum strain Pf3D70087/N9; assay: In vivo antimalarial activity in humanized mouse model for P. falciparum infection; set-up: species or system Plasmodium falciparum
# Procedure: Reduction of existing parasitemia in vivo was investigated using a humanized mouse model for P. falciparum infection. Female NODscidIL2Rynull mice were engrafted by daily intravenous injection of 0.6 ml of human blood for 11 days. Subsequently, mice were infected with P. falciparum strain Pf3D70087/N9 by injecting 2.10^7 parasites in a volume of 0.2 ml. Four days post infection, mice were treated with a single 50 mg/kg dose of test compound. To this end, compounds were formulated in 70% Tween®-80 (d=1.08g/ml) and 30% ethanol (d=0.81g/ml), followed by a 10-fold dilution in H2O and administered by oral gavage. Parasitemia was followed by daily collection of 2 μl tail blood. The hematocrit was determined by fluorescence-activated cell sorting (FACS) and parasitemia by microscopy on >10,000 red blood cells. […] The compounds indicated at the legend were dosed as a single oral dose of 50 mg/kg at day 4 post infection (indicated by the arrow) and parasitemia was followed for another three days. The data shown in FIG. 1 indicate that all pantothenamide analogues tested show a dramatic reduction in blood stage parasitemia at a single oral dose of 50 mg/kg.
# [5] = system: Human primary hepatocytes; assay: Metabolic stability in human primary hepatocytes (hepatocyte relay assay); format: in vitro ADME; conditions: comparative example
# Procedure: as §2
# [6] = female NODscidIL2Rγnull mice, single oral dose 50 mg/kg at day 4 post infection
# [7] = same protocol as example 16, relay assay
smiles,measurement,setting,value
"C[C@@H](CNC(=O)[C@H](O)C(C)(C)CO)NC(=O)c1cccc(F)c1 [Compound E1, (2R)-N-[(2S)-2-[(3-fluorophenyl)formamido]propyl]-2,4-dihydroxy-3,3-dimethylbutanamide]",IC50,[1],1.9 nM
same,IC50,[2],2 nM
same,hepatocyte CLint at 10 μM,[3],0.5 µL/min/1e6 cells
same,half-life at 10 μM,[3],42.2 h
same,In vivo efficacy log reduction in parasitemia in Pf SCID mouse at 50 mg/kg p.o. 1 × QD,[4]; [6],>3
"C[C@@H](CNC(=O)[C@H](O)C(C)(C)CO)NC(=O)c1cc(C#N)ccc1F [Compound B1, (2R)-N-[(2S)-2-[(5-cyano-2-fluorophenyl)formamido]propyl]-2,4-dihydroxy-3,3-dimethylbutanamide]",IC50,[1],6.2 nM
same,IC50,[2],21.4 nM
same,hepatocyte CLint at 10 μM,[3],0.2 µL/min/1e6 cells
same,half-life at 10 μM,[3],107 h
same,In vivo efficacy log reduction in parasitemia in Pf SCID mouse at 50 mg/kg p.o. 1 × QD,[4]; [6],2.4
"C[C@H](CNC(=O)[C@@H](O)C(C)(C)CO)NC(=O)CCc1ccccc1F [MMV689258, reference compound]",metabolic stability compared with the compounds of the invention (in words),[5],substantially lower
same,Metabolic stability in human hepatocytes Clint,[5]; [7],0.8 μl/min/10^6 cells
same,Metabolic stability in human hepatocytes T½,[5]; [7],29.403 h
same,in vivo efficacy compared with the compounds of the invention (in words),[4]; comparative example,substantially less efficacious
same,In vivo efficacy log reduction in parasitemia in Pf SCID mouse at 50 mg/kg p.o. 1 × QD,"[4]; comparative example, same protocol as example 17, female NODscidIL2Rγnull mice",1.5
"C[C@@H](CNC(=O)[C@H](O)C(C)(C)CO)NC(=O)c1ccc(F)c(Cl)c1 [Compound G1, (2R)-N-[(2S)-2-[(3-chloro-4-fluorophenyl)formamido]propyl]-2,4-dihydroxy-3,3-dimethylbutanamide]",IC50,[1],3.4 nM
same,IC50,[2],0.2 nM
"C[C@@H](CNC(=O)[C@H](O)C(C)(C)CO)NC(=O)c1cc(Cl)c(F)cc1F [Compound D1, (2R)-N-[(2S)-2-[(5-chloro-2,4-difluorophenyl)formamido]propyl]-2,4-dihydroxy-3,3-dimethylbutanamide]",IC50,[1],2.3 nM
same,IC50,[2],0.4 nM
"C[C@@H](CNC(=O)[C@H](O)C(C)(C)CO)NC(=O)c1cccc(Cl)c1 [Compound F1, (2R)-N-[(2S)-2-[(3-chlorophenyl)formamido]propyl]-2,4-dihydroxy-3,3-dimethylbutanamide]",IC50,[1],2.1 nM
same,IC50,[2],0.4 nM
"C[C@@H](CNC(=O)[C@H](O)C(C)(C)CO)NC(=O)c1cc(F)c(F)cc1F [Compound A1, (2R)-2,4-dihydroxy-3,3-dimethyl-N-[(2S)-2-[(2,4,5-trifluorophenyl)formamido]propyl]butanamide]",IC50,[1],2.4 nM
same,IC50,[2],8 nM
same,hepatocyte CLint at 10 μM,[3],0.4 µL/min/1e6 cells
same,half-life at 10 μM,[3],59.4 h
same,In vivo efficacy log reduction in parasitemia in Pf SCID mouse at 50 mg/kg p.o. 1 × QD,[4]; [6],>3
"C[C@@H](CNC(=O)[C@H](O)C(C)(C)CO)NC(=O)c1cccc(C#N)c1 [Compound C1, (2R)-N-[(2S)-2-[(3-cyanophenyl)formamido]propyl]-2,4-dihydroxy-3,3-dimethylbutanamide]",IC50,[1],7.4 nM
same,IC50,[2],2.2 nM
same,hepatocyte CLint at 10 μM,[3],0.3 µL/min/1e6 cells
same,half-life at 10 μM,[3],84.1 h
same,In vivo efficacy log reduction in parasitemia in Pf SCID mouse at 50 mg/kg p.o. 1 × QD,[4]; [6],>3
